Measurements taken from article PMC5373622, “Screening for AMPA receptor auxiliary subunit specific modulators” (PLoS ONE, 2017).
Values joined by “and” are separate entries in the source; they are usually repeats but may differ in a detail not shown here. Identical values can stand only once. Like-named read-outs stand apart in the source and are kept apart here.

Assays:
[1] = tested on: GluA2-stargazin; settings: previously reported; cited from earlier work
[2] = target: GluA2flip(R)-CNIH3 (A2R-C3 TetON HEK293 cells) (Homo sapiens, UniProt P42262, Q607R); assay: VSD assay (counter-screen, CRC) on A2R-C3 cells; settings: for CMPDmaxmin: max-min 8-100 s; for CMPDmaxmin / CMPDSlope: compound only; for Glumaxmin: max-min normalized value 301-380 s; for Glumaxmin / GluSlope: compound+glutamate; for BaselineReturn: max 250-255 s minus min 0-5 s; for GluSlope: slope of normalized value 310-315 s; for CMPDSlope: slope 11-18 s
Sequence of GluA2flip(R)-CNIH3 (A2R-C3 TetON HEK293 cells) (P42262 25-883 isoform P42262-2 Q607R limits assumed): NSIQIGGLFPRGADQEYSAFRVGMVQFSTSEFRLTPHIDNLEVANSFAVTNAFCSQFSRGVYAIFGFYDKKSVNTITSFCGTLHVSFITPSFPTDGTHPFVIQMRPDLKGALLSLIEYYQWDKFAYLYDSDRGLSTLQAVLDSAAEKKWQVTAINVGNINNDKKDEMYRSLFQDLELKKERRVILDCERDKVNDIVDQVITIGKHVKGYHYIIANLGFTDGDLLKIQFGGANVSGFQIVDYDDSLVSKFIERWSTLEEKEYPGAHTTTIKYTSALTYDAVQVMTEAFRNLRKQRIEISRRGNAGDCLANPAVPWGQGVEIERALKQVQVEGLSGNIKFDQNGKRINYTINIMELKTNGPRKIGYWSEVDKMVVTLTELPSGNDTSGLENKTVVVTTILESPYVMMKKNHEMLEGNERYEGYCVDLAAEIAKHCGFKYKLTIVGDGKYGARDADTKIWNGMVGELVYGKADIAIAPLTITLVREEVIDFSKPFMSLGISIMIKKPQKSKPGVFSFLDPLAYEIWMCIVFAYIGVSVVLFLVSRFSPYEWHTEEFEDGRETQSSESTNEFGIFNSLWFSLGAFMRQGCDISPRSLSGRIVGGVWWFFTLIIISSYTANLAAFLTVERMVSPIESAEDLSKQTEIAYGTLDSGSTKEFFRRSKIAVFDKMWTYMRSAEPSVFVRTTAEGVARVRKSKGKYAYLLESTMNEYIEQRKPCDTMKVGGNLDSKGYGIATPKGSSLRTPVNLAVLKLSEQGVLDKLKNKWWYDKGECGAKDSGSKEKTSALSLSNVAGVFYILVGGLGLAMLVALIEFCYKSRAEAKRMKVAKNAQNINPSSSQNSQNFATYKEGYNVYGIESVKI
Sequence of GluA2flip(R)-CNIH3 (A2R-C3 TetON HEK293 cells) (Q8TBE1 whole entry partner): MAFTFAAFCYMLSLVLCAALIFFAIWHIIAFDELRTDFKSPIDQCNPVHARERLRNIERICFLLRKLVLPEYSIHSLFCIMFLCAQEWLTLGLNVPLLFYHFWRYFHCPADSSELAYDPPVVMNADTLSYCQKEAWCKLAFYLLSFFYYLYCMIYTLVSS
Text: Cell lines used in the VSD assays were TetON HEK293 cells. This was the parental cell line for all stable cell lines created. We used GluA2flip(R) TetON HEK cell clone #4 that doxycycline (DOX) dependently expresses GluA2flip(R) (A2R). The A2R cells were used as the base cell line to derive cell lines that co-express auxiliary subunits.
(§1) Greiner 384-pp round-bottom plates containing glutamate for the second add were dispensed by hand using a multi-channel pipet at 5X final concentration. A2R-stg cells were plated in 384-well BD PureCoat amine-coated plates (Corning Life Sciences) at 16k cells/well in DMEM medium supplemented with 10% heat-inactivated FBS and 100U/mL PenStrep antibiotic. […] Cells were incubated overnight (O/N) and washed 4 times in HBSS containing 20 mM HEPES, pH 7.4, on an ELX405CW liquid aspirator and dispenser (BioTek). Buffer was left in the wells and an equal amount of 2X FLIPR dye solution was added and incubated on the cells at room temperature for 45 min. Fluorescence signal was collected at 1 Hz using Ex. 480±20 nm/Em. 540±40 nm on a Hamamatsu Functional Drug Screening System 6000 (FDSS). Baseline signal was collected for 10 seconds followed by addition of 10 μl of 5X compound for a final concentration of 10 μM.
This assay was carried out in the same way as the VSD screening assay except a 10-point concentration curve, from 40 μM to 10 nM, was plated in triplicate for each compound on a single 384-well plate. Data were summarized by plotting them as %max GLUslope against log [compound] that was fit to a four-parameter logistical model. %max GLUslope is defined as a normalized GLUslope expressed as a percentage of the mean maximum GLUslope, defined as 100, where background mean vehicle control (VHLslope) were subtracted from both values on a per plate basis. Thus, %max GLU slope = (GLUslope-mean VHLslope/mean maxGLUslope-mean VHLslope).

[3] = target: GluA2flip(R)-stargazin (A2R-stg TetON HEK293 cells) (Homo sapiens, UniProt P42262, Q607R); assay: Voltage-sensitive dye (VSD) assay (primary screen, counter-screen, CRC) on A2R-stg cells; settings: for CMPDmaxmin (maximal - minimal normalized value, 8-100 s, only compound present) / pctMAX (Glumaxmin as percentage MAX) / pctMAXslope (GluSlope as percentage MAX) / pctMAXslopeCMPD (CMPDSlope as percentage MAX): per well, plate 58169DST7
Sequence of GluA2flip(R)-stargazin (A2R-stg TetON HEK293 cells) (P42262 25-883 isoform P42262-2 Q607R limits assumed): as the sequence (P42262 25-883 isoform P42262-2 Q607R limits assumed) above
Sequence of GluA2flip(R)-stargazin (A2R-stg TetON HEK293 cells) (Q9Y698 whole entry partner): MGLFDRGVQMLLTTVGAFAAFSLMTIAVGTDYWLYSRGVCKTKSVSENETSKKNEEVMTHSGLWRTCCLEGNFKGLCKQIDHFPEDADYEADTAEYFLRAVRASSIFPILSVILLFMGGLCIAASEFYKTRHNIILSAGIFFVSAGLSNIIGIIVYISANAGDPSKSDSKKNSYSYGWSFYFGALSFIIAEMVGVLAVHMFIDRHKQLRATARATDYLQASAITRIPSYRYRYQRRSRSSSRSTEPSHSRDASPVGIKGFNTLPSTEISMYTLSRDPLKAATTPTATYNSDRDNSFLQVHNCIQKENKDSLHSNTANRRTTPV
Experimental: Cell lines used in the VSD assays were TetON HEK293 cells. […] We used GluA2flip(R) TetON HEK cell clone #4 that doxycycline (DOX) dependently expresses GluA2flip(R) (A2R). The A2R cells were used as the base cell line to derive cell lines that co-express auxiliary subunits.
as §1
Hits were selected from this initial screen using 4 different criteria, which we termed CMPDslope, CMPDmaxmin, GLUslope, and GLUmaxmin. […] GLUslope is the fitted slope of the increase in fluorescence within 10 sec after adding glutamate. GLUmaxmin is the difference in the minimum and maximum value in fluorescence signal reached in the 100 sec window after adding glutamate. Compounds were classified as hits if they differed by 3 standard deviations of the mean for each criterion. Tier 1 hits were classified as those that hit in the GLUslope, GLUmaxmin, and CMPDmaxmin windows. Tier 2 hits were classified as compounds that hit in the GLUslope window and either the GLUmaxmin or CMPDmaxmin window. Tier 3 hits were classified as those that hit in only the GLUslope or the GLUmaxmin window. Tier 4 hits were classified as compounds that hit only in the CMPD window, CMPDslope or CMPDmaxmin. Hit selection was further narrowed using the criterion that their signal must return to near baseline values before entering the glutamate add window.
VSD concentration response curves (CRCs): After the above counter-screens, compounds that remained positive were moved forward to collect complete CRCs for A2R-stg and A2R-C3 cell lines. This assay was carried out in the same way as the VSD screening assay except a 10-point concentration curve, from 40 μM to 10 nM, was plated in triplicate for each compound on a single 384-well plate. Data were summarized by plotting them as %max GLUslope against log [compound] that was fit to a four-parameter logistical model. %max GLUslope is defined as a normalized GLUslope expressed as a percentage of the mean maximum GLUslope, defined as 100, where background mean vehicle control (VHLslope) were subtracted from both values on a per plate basis. Thus, %max GLU slope = (GLUslope-mean VHLslope/mean maxGLUslope-mean VHLslope).

Glumaxmin ([2]; 0.0005 M ligand, per well): 0.1143 and 0.1458 and 0.1743 | activity at 250 µM ([2]; HEK293, read-out: AVE %MAXCMPDslope, 0.00025 M ligand, average over wells): 20.2% | activity at 1000 µM ([2]; HEK293, read-out: AVE %MAXCMPDslope, 0.001 M ligand, average over wells): 29.1% | activity at […] ([2]; HEK293, read-out: AVE %MAXCMPDslope, […] ligand, average over wells): 18.9% | activity at 250 µM ([2]; HEK293, read-out: AVE %MAXslope, 0.00025 M ligand, average over wells): 33.8% | activity at 500 µM ([2]; HEK293, read-out: AVE %MAXslope, 0.0005 M ligand, average over wells): 40.3% | activity at 1000 µM ([2]; HEK293, read-out: AVE %MAXslope, 0.001 M ligand, average over wells): 54.1% | activity at […] ([2]; HEK293, read-out: AVE %MAXslope, […] ligand, average over wells): 25.6% | activity at 250 µM ([2]; HEK293, read-out: pctMAXslope, 0.00025 M ligand, GluSlope as percentage MAX, per well): 30.3% | activity at 500 µM ([2]; HEK293, read-out: pctMAXslope, 0.0005 M ligand, GluSlope as percentage MAX, per well): 37% | activity at […] ([2]; HEK293, read-out: pctMAXslope, […] ligand, GluSlope as percentage MAX, per well): 21% | activity at 250 µM ([2]; HEK293, read-out: pctMAXslopeCMPD, 0.00025 M ligand, CMPDSlope as percentage MAX of GluSlope controls, per well): 19.4% | activity at 500 µM ([2]; HEK293, read-out: pctMAXslopeCMPD, 0.0005 M ligand, CMPDSlope as percentage MAX of GluSlope controls, per well): 22.3% | activity at 1000 µM ([2]; HEK293, read-out: pctMAXslopeCMPD, 0.001 M ligand, CMPDSlope as percentage MAX of GluSlope controls, per well): 30% | activity at […] ([2]; HEK293, read-out: pctMAXslopeCMPD, […] ligand, CMPDSlope as percentage MAX of GluSlope controls, per well): 18.5% | EC50 [3]: 59.4 µM
SMILES: O=C(c1ccc2c(c1)OCCO2)N1CCCCC1 [CX-546, 1-(1,4-benzodioxan-6-ylcarbonyl)piperidine]
EC50 [1]: 563 µM | CMPDmaxmin ([2]; 3.90625e-6 M ligand, per well): 0.02275 and 0.02429 and 0.01798 and 0.02168 | CMPDmaxmin ([2]; 7.8125e-6 M ligand, per well): 0.02523 and 0.02353 and 0.02165 and 0.01735 | Glumaxmin ([2]; 7.8125e-6 M ligand, per well): 0.04101 and 0.05338 and 0.04284 and 0.03307 and 0.0299 and 0.0291 | CMPDmaxmin ([2]; 6.25e-5 M ligand, per well): 0.02083 and 0.02655 and 0.02189 and 0.02084 and 0.01632 | Glumaxmin ([2]; 6.25e-5 M ligand, per well): 0.04091 and 0.0333 and 0.02423 and 0.04193 and 0.044 and 0.03344 | BaselineReturn ([2]; 0.00025 M ligand, per well): 0.0251 and 0.02832 and 0.03028 and 0.03411 and 0.02776 and 0.02771 | CMPDmaxmin ([2]; 0.00025 M ligand, per well): 0.02518 and 0.02777 and 0.02573 and 0.03151 and 0.03447 and 0.02604 | Glumaxmin ([2]; 0.00025 M ligand, per well): 0.07039 and 0.07337 and 0.08523 and 0.112 and 0.08025 | GluSlope ([2]; 0.00025 M ligand, per well): 6.934e-6 and 8.592e-6 and 7.437e-6 and 1.202e-5 and 1.111e-5 and 6.283e-6 | BaselineReturn ([2]; 0.0005 M ligand, per well): 0.05295 and 0.05148 and 0.05075 and 0.04719 and 0.05673 and 0.04937 | CMPDmaxmin ([2]; 0.0005 M ligand, per well): 0.05637 and 0.05305 and 0.05109 and 0.05302 and 0.05564 and 0.06158 | CMPDSlope ([2]; 0.0005 M ligand, per well): 2.7882e-6 and 3.22e-6 and 3.04e-6 and 3.857e-6 and 3.969e-6 and 3.136e-6 | GluSlope ([2]; 0.0005 M ligand, per well): 1.038e-5 and 1.007e-5 and 1.121e-5 and 1.228e-5 and 1.22e-5 and 1.66e-5 | BaselineReturn ([2]; 0.001 M ligand, per well): 0.1285 and 0.1243 and 0.1327 (2×) and 0.1383 and 0.1333 | CMPDmaxmin ([2]; 0.001 M ligand, per well): 0.1223 and 0.1248 and 0.1314 and 0.1303 and 0.1374 and 0.1301 | CMPDSlope ([2]; 0.001 M ligand, per well): 6.79e-6 and 6.675e-6 and 5.635e-6 and 5.488e-6 and 6.247e-6 and 7.073e-6 | CMPDmaxmin (maximal - minimal normalized value, 8-100 s, only compound present) ([3]; 3.90625e-6 M): 0.02005 and 0.02265 and 0.02255 and 0.0215 and 0.02263 | pctMAX (Glumaxmin as percentage MAX) ([3]; 3.90625e-6 M): -20.3423% and -18.5877% and -17.4231% and -25.653% and -23.4431% | pctMAXslope (GluSlope as percentage MAX) ([3]; 3.90625e-6 M): 19.0119% and 16.1163% and 16.1435% and 23.5293% and 24.5477% and 19.9769% | pctMAXslopeCMPD (CMPDSlope as percentage MAX) ([3]; 3.90625e-6 M): 26.8078% and 27.859% and 27.6784% and 25.3948% and 25.8066% and 27.049% | CMPDmaxmin (maximal - minimal normalized value, 8-100 s, only compound present) ([3]; 7.8125e-6 M): 0.02204 and 0.02518 and 0.02221 and 0.01901 | pctMAXslope (GluSlope as percentage MAX) ([3]; 7.8125e-6 M): 18.0524% and 15.893% and 18.8435% and 18.5798% and 25.5404% and 27.1839% | pctMAXslopeCMPD (CMPDSlope as percentage MAX) ([3]; 7.8125e-6 M): 27.7492% and 27.8022% and 28.8582% and 27.2592% and 26.4835% and 26.0048% | CMPDmaxmin (maximal - minimal normalized value, 8-100 s, only compound present) ([3]; 1.5625e-5 M): 0.02181 and 0.01695 and 0.02869 and 0.01943 and 0.02297 | pctMAXslopeCMPD (CMPDSlope as percentage MAX) ([3]; 1.5625e-5 M): 28.6064% and 25.6086% and 27.9557% and 25.483% and 25.9044% and 26.6639% | pctMAX (Glumaxmin as percentage MAX) ([3]; 3.125e-5 M): -24.1315% and -27.3641% and -24.1538% and -25.136% and -22.907% and -18.6431% | pctMAXslope (GluSlope as percentage MAX) ([3]; 3.125e-5 M): 27.6745% and 23.6277% and 22.7715% and 21.1161% and 24.5423% and 29.8099%
